Experimental data published in patent US7612045B2, “Compounds, compositions and methods for controlling biofilms and bacterial infections” (Sequoia Sciences, Inc., priority 2005, dated 2009).
Read-outs that look alike come from different tables or passages of the source.

Columns and labels:
[1] = system: Pseudomonas aeruginosa; assay: Microtiter plate biofilm formation assay (crystal violet), Pseudomonas aeruginosa; format: cell-based; settings: read-out: % Biofilm Inhibition of Pseudomonas Aeruginosa
Experimental: In this example, a concentrated solution of each compound tested was loaded separately into three separate wells of a polystyrene microtiter plate. In addition, each assay included triplicate wells correlating to negative and positive controls. […] Next, 150 μl of sterile media was added to each well (LB media with 0.2% glucose)—followed by 50 μl of the appropriate bacterial inoculum. Thus, each well contained a final volume of approximately 200 μl (not including the volume of the concentrated inhibitor). The final concentration of each biofilm inhibitor tested in the assay was 10 μg/ml. The microtiter plates were then placed on a shaker for approximately 20 to 24 hours at room temperature. After the incubation period, the microtiter plate was removed from the shaker, rinsed, and stained. During the rinsing step, the test compound, media, and bacterial inoculum solution was drained from the plate, approximately 300 μL of 0.1M phosphate buffered saline (PBS) was added to each well, which was subsequently drained from the plate. The rinsing step removed any suspended cells from the assay. An 0.1% crystal violet stain was added to each well for approximately 20 minutes. Next, the crystal violet solution was drained from the microtiter plate. The plate was rinsed with PBS as described above four (4) times to remove any excess stain from the plate. Following the PBS rinsing steps, the plate was eluted with 250 μL/well of ethanol, which improved the detection of the stain. The plate was immediately analyzed spectrophotometrically at 540 nm using a microtiter plate reader.
The average O.D. for each test compound was compared to the average O.D. of the negative control (the positive control was employed to verify proper assay function).

[2] = system: E. coli clinical strain UTI89; assay: Biofilm formation of E. coli clinical strain UTI89 in 96 well plates (crystal violet); format: cell-based; settings: Escherichia coli, 24 h, one day, read-out: inhibition of biofilm formation of the UTI89 strain as compared to the controls; for inhibition at 32 µg/mL: 32 ug/ml; for inhibition at 8 µg/mL: 8 ug/ml; for inhibition at 16 µg/mL: 16 ug/ml
Experimental: Biofilm inhibition experiments were conducted using an assay adapted from the reported protocol described in Pratt and Kolter, 1998, Molecular Microbiology, 30: 285-293; Li et al., 2001, J. Bacteriol., 183: 897-908. E. coli clinical strain UTI89 was grown in LB in 96 well plates at room temperature for one day without shaking. To quantify the biofilm mass, the suspension culture was poured out and the biofilm was washed three times with water. The biofilm was stained with 0.1% crystal violet for 20 minutes. The plates were then washed three times with water. Then 95% ethanol was added to dissolve the dye at the bottom and on the wall and the OD reading at 540 nm was measured to quantify the total biofilm mass. Test compounds were added with the inoculation and biofilm mass was measured after one day as described above appropriate amounts of 100% ethanol were added to each sample to eliminate the effect of solvent. Each condition had 4 to 8 replicates on each plate and was performed over multiple days.

[3] = system: Escherichia coli; assay: Microtiter plate biofilm formation assay (crystal violet), Escherichia coli; format: cell-based; settings: read-out: % Biofilm Inhibition of E. coli
[4] = system: P. aeruginosa; settings: data of the '911 patent; cited from earlier work
[5] = system: S. salivaris; settings: data of the '911 patent; cited from earlier work
[6] = system: S. aureus; settings: data of the '911 patent; cited from earlier work
[7] = system: S. mutans; settings: data of the '911 patent; cited from earlier work
[8] = system: E. coli; settings: data of the '911 patent; cited from earlier work
[9] = system: bacterial growth; assay: Bacterial growth inhibition studies; format: cell-based
[10] = system: methicillin-resistant Staphylococcus aureus; settings: cited from earlier work
[11] = 10 μg/ml, 20 to 24 hours at room temperature, O.D. 540 nm vs negative control
[12] = 10 μg/ml, same microtiter assay

Structure (SMILES): C[C@@H]1[C@H]2C3=CC[C@@H]4[C@@]5(C)CC[C@H](OC(=O)/C=C\c6ccc(O)cc6)C(C)(C)[C@@H]5CC[C@@]4(C)[C@]3(C)CC[C@@]2(C(=O)O)CC[C@]1(C)O (relative stereo) [Compound 188, 3-[4-Hydroxycinnamoyl(cis-)], 20-hydroxy-ursolic acid]
- inhibition at 10 µg/mL [1, 11]: 62%

Structure (SMILES): CO[C@H]1C[C@@]2(C)C(CC[C@]3(C)C2CC=C2C4[C@@H](C)[C@H](C)CC[C@]4(C(=O)O)CC[C@]23C)C(C)(C)[C@@H]1OC(=O)/C=C/c1ccccc1 (stereo partly drawn) [2β-methoxy-3α-cinnamoyl-12-ursen-28-oic acid]
- inhibition at 32 µg/mL [2]: ~40%

Structure (SMILES): C[C@@H]1CC[C@]2(C(=O)O)CC[C@]3(C)C(=CCC4[C@@]5(C)CC[C@H](OC(=O)OC(C)(C)C)C(C)(C)C5CC[C@]43C)C2[C@H]1C (stereo partly drawn) [3β-O-tert-butyloxycarbonyl-ursolic acid]
- inhibition at 32 µg/mL [2]: ~46%

Structure (SMILES): C[C@H]1[C@H](CO)CC[C@]2(C(=O)O)CC[C@]3(C)C(=CCC4[C@@]5(C)CC[C@H](O)C(C)(C)C5CC[C@]43C)[C@H]12 (some centres unmarked) [Compound 99, 30-hydroxyursolic acid]
- inhibition at 10 µg/mL [1, 11]: 30%

Structure (SMILES): CC1(C)CC[C@]2(C(=O)O)CCC3(C)C(=CCC4C5(C)C[C@@H](O)[C@H](O)C(C)(C)C5CCC43C)[C@@H]2C1 (some centres unmarked) [Compound 107, 2-hydroxyoleanic acid]
- inhibition at 10 µg/mL [1]: 46%

Structure (SMILES): C[C@@H]1CC[C@]2(C(=O)O)CCC3(C)C(=CCC4C5(C)C[C@@H](O)[C@H](O)C(C)(C)C5CCC43C)C2[C@H]1C (stereo partly drawn) [Compound 108, 2α,3β-dihydroxy-12-ursen-28-oic acid]
- inhibition at 10 µg/mL [1, 11]: 52%
- inhibition at 20 µg/mL ([2]; 20 ug/ml): ~85%
- inhibition at 10 µg/mL [3, 12]: 74%

Structure (SMILES): C[C@H]1[C@H](C)CC[C@]2(C(=O)O)CC[C@]3(C)C(=CC[C@@H]4[C@@]5(C)CC[C@H](O)C(C)(C)[C@@H]5CC[C@]43C)[C@H]12 [Compound 110, Ursolic Acid]
- Growth inhibition of P. aeruginosa [4]: failed to inhibit
- Growth inhibition of S. salivaris [5]: completely inhibited
- Growth inhibition of S. aureus [6]: failed to inhibit
- inhibition at 10 µg/mL [3, 12]: 80%
- Growth inhibition of S. mutans [7]: completely inhibited
- Growth inhibition of E. coli [8]: failed to inhibit

Structure (SMILES): C[C@H]1[C@H](C)CC[C@]2(C(=O)O)CC[C@]3(C)C(=CCC4[C@@]5(C)C[C@@H](O)[C@H](OC(=O)/C=C/c6ccc(O)cc6)C(C)(C)C5CC[C@]43C)[C@H]12 (stereo partly drawn) [Compound 189, 3-[4-hydroxycinnamoyl(trans-)]-2-hydroxyursolic acid]
- inhibition at 10 µg/mL [1, 11]: 35%

Structure (SMILES): CC1CCC2(C(=O)O)CCC3(C)C(=CCC4C5(C)CC(O)C(O)C(C)(C)C5CCC43C)C2C1(C)O (centres unmarked) [Compound 192, Euscaphic Acid]
- inhibition at 10 µg/mL [1, 11]: 32%

Structure (SMILES): C[C@@H]1[C@H]2C3=CCC4[C@@]5(C)CC[C@H](O)C(C)(C)C5CC[C@@]4(C)[C@]3(C)CC[C@@]2(C(=O)O)CC[C@]1(C)O (some centres unmarked) [Compound 195, 20B-hydroxyursolic acid]
- inhibition at 10 µg/mL [1, 11]: 25%

Structure (SMILES): C[C@@H]1CC[C@]2(C(=O)O)CC[C@]3(C)C(=CCC4[C@@]5(C)C[C@@H](O)[C@H](O)C(C)(C)C5CC[C@]43C)[C@@H]2[C@]1(C)O (some centres unmarked) [Compound 203, Tormentic Acid]
- inhibition at 10 µg/mL [1, 11]: 43%

Structure (SMILES): CC1(C)CC[C@]2(C(=O)O)CC[C@]3(C)C(=CC[C@@H]4[C@@]5(C)CC[C@H](O)C(C)(C)[C@@H]5CC[C@]43C)[C@@H]2C1 [Compound 225, Oleanolic Acid]
- inhibition at 10 µg/mL [1, 11]: 35%
- Growth inhibition of P. aeruginosa [4]: failed to inhibit
- Growth inhibition of S. salivaris [5]: incomplete inhibition
- Growth inhibition of S. aureus [6]: failed to inhibit
- inhibition at 10 µg/mL [3, 12]: 35%
- Growth inhibition of S. mutans [7]: incomplete inhibition
- Growth inhibition of E. coli [8]: failed to inhibit

Structure (SMILES): C[C@@H]1CCC2(C(=O)O)CC[C@]3(C)C(=CCC4[C@@]5(C)C[C@@H](O)[C@H](O)[C@@](C)(CO)C5CC[C@]43C)C2[C@H]1C (some centres unmarked) [Compound 255, Asiatic Acid]
- direct anti-bacterial activity [9]: do not display direct anti-bacterial activity
- inhibition at 10 µg/mL [3, 12]: 75%

Structure (SMILES): C[C@H]1[C@H](C)CC[C@]2(C(=O)O)CC[C@]3(C)C(=CC[C@@H]4[C@@]5(C)C[C@@H](O)[C@H](O)[C@@](C)(CO)[C@@H]5[C@H](O)C[C@]43C)[C@H]12 [Compound 314, Madecassic Acid]
- direct anti-bacterial activity [9]: do not display direct anti-bacterial activity

Structure (SMILES): CC1(C)CC[C@@]2(C(=O)O)C(O)C[C@]3(C)C(=CCC4[C@@]5(C)CC[C@H](O)[C@@](C)(CO)C5CC[C@]43C)C2C1 (some centres unmarked) [Compound 323, Caulophyllogenin]
- inhibition at 10 µg/mL [3, 12]: 35%

Structure (SMILES): CO[C@H]1C[C@@]2(C)C(CC[C@]3(C)C2CC=C2C4[C@@H](C)[C@H](C)CCC4(C(=O)O)CC[C@]23C)C(C)(C)[C@@H]1O (stereo partly drawn) [Compound 410, 2β-methoxy-3α-hydroxy-12-ursen-28-oic acid]
- inhibition at 32 µg/mL [2]: ~38%

Structure (SMILES): C=C1CCC2(C(=O)O)CCC3(C)C(=CCC4C5(C)CCC(O)C(C)(C)C5CCC43C)C2C1C (centres unmarked) [Compound 430, 3-hydroxy-12,20(30) ursadien-28-oic acid]
- inhibition at 10 µg/mL [3]: 60%

Structure (SMILES): C[C@@H]1CC[C@]2(C(=O)O)CCC3(C)C(=CCC4C5(C)C[C@H](O)[C@@H](O)C(C)(C)C5CCC43C)C2[C@H]1C (stereo partly drawn) [Compound 431, 2β,3α-dihydroxy-12-ursen-28-oic acid]
- inhibition at 32 µg/mL [2]: ~62%

Structure (SMILES): CC1(C)CC[C@]2(C(=O)O)[C@H](O)C[C@]3(C)C(=CC[C@@H]4[C@@]5(C)CC[C@H](O)C(C)(C)[C@@H]5CC[C@]43C)[C@@H]2C1 [Compound 455, 3β,16α-dihydroxyolean-12-en-28-oic acid]
- inhibition at 8 µg/mL [2]: ~27%
- inhibition at 16 µg/mL [2]: ~50%
- inhibition at 32 µg/mL [2]: ~80%

Structure (SMILES): C[C@@H]1CC[C@]2(C(=O)O)CC[C@]3(C)C(=CCC4[C@@]5(C)C[C@@H](O)[C@@H](O)[C@](C)(CO)C5CC[C@]43C)C2[C@H]1C (stereo partly drawn) [Compound 457, 2α,3α,24-trihydroxy-12-ursen-28-oic acid]
- inhibition at 8 µg/mL [2]: ~50%
- inhibition at 16 µg/mL [2]: ~53%
- inhibition at 32 µg/mL [2]: ~80%

Structure (SMILES): C[C@@H]1CC[C@]2(C(=O)O)CC[C@]3(C)C(=CCC4[C@]5(C)C(CC[C@]43C)[C@@](C)(CO)[C@H](O)[C@H](O)[C@H]5O)C2[C@H]1C (stereo partly drawn) [Compound 458, 1β,2α,3α,24-tetrahydroxy-12-ursen-28-oic acid]
- inhibition at 32 µg/mL [2]: ~45%

Structure (SMILES): CO[C@H]1/C=C/O[C@@]2(C)Oc3c(C)c(O)c4c(O)c(c(/C=N/N5CCN(C)CC5)c(O)c4c3C2=O)NC(=O)/C(C)=C\C=C\[C@H](C)[C@H](O)[C@@H](C)[C@@H](O)[C@@H](C)[C@H](OC(C)=O)[C@@H]1C [rifampin]
- Eradication of MRSA in a biofilm ([10]; biofilm, urinary catheters): unable to eradicate
- Activity against MRSA planktonic, or suspended cells ([10]; planktonic cells): effective
